The experiment deals with Glycogen synthase kinase-3 beta splice variant X1 (Bos taurus) (UniProt A0A059UE90). The experiment can be described thus: Inhibition of bovine cerebral TPK1 assessed as reduction in P-GS1 phosphorylation using [32gammaP]ATP incubated for 2 hrs by liquid scintillation counting method.

Calls of active or inactive are those of the source. The rule behind the calls is not given here.

Turning to `Cn1c(N2CCO[C@@H](c3ccc(NC4CCCC4)cc3)C2)nc(-c2ccncc2F)cc1=O`, the inhibition result is “Active”. Then `CC(=O)N(C)c1ccc([C@H]2CN(c3nc(-c4ccncc4F)cc(=O)n3C)CCO2)cc1`, with “Active”; and `Cn1c(N2CCN[C@@H](c3ccc(-c4ccc(OC(F)(F)F)cc4)cc3)C2)nc(-c2ccncc2F)cc1=O`, with “Active”; and `Cn1c(N2CCN[C@@H](c3ccc(-c4ccc(Cl)cc4)cc3)C2)nc(-c2ccncc2F)cc1=O`, with “Active”. Then `Cn1c(N2CCO[C@@H](c3ccc(C(=O)NC4CCCCC4)cc3)C2)nc(-c2ccncc2F)cc1=O`, with “Active”; and `Cn1c(N2CCN[C@@H](c3ccc(C#N)cc3)C2)nc(-c2ccncc2F)cc1=O`, with “Active”; and `CC(C)N1CCN(c2ccc([C@H]3CN(c4nc(-c5ccncc5F)cc(=O)n4C)CCO3)cc2)CC1`, with “Active”.

Consider `CC(=O)N[C@H]1CCN(c2ccc([C@H]3CN(c4nc(-c5ccncc5F)cc(=O)n4C)CCO3)cc2)C1`, for which the inhibition entry was “Active”.

Turning to `Cn1c(N2CCO[C@@H](c3ccc(NC4CCc5ccccc54)cc3)C2)nc(-c2ccncc2F)cc1=O` (some centres undefined), the inhibition entry was “Active”. For `Cn1c(N2CCN[C@@H](c3ccc(-c4ccc(Cl)cc4Cl)cc3)C2)nc(-c2ccncc2F)cc1=O`, the inhibition result was “Active”.

Turning to `Cn1c(N2CCO[C@@H](c3ccc(N4CCC(N5CCCCC5)CC4)cc3)C2)nc(-c2ccncc2F)cc1=O`, the inhibition entry was “Active”. Consider `Cn1c(N2CCO[C@@H](c3ccc(OCCN4CCCC4)cc3)C2)nc(-c2ccncc2F)cc1=O`, for which the inhibition entry was “Active”. Consider `Cn1c(N2CCO[C@@H](c3ccc(N4CCC(O)CC4)cc3)C2)nc(-c2ccncc2F)cc1=O`, for which the inhibition result is “Active”. With `Cn1c(N2CCOC(c3ccc(Br)cc3)C2)nc(-c2ccncc2F)cc1=O` (centres undefined), the inhibition entry is “Active”. Then `Cn1c(N2CCO[C@@H](c3ccc(C(=O)N4CCCCC4)cc3)C2)nc(-c2ccncc2F)cc1=O`, with “Active”. `Cn1c(N2CCO[C@@H](c3ccc(N4CCOCC4)cc3)C2)nc(-c2ccncc2F)cc1=O`: the inhibition entry was “Active”. Take `Cn1c(N2CCO[C@@H](c3ccc(N(CCO)C4CCCCC4)cc3)C2)nc(-c2ccncc2F)cc1=O`: the inhibition result was “Active”.

For the compound `Cn1c(N2CCO[C@@H](c3ccc(N4CC[C@@H](O)C4)cc3)C2)nc(-c2ccncc2F)cc1=O`, the inhibition result was “Active”.

Take `CC1CC1C(=O)Nc1ccc([C@H]2CN(c3nc(-c4ccncc4F)cc(=O)n3C)CCO2)cc1` (some centres undefined): the inhibition entry was “Active”.

On to `CCN(CC)C(=O)Nc1ccc([C@H]2CN(c3nc(-c4ccncc4F)cc(=O)n3C)CCO2)cc1`, for which the inhibition result is “Active”.

On to `CN(c1ccc([C@H]2CN(c3nc(-c4ccncc4F)cc(=O)n3C)CCO2)cc1)C1C2CC3CC(C2)CC1C3` (some centres undefined), for which the inhibition entry was “Active”. As to `Cn1c(N2CCO[C@@H](c3ccc(N4CC[C@@H](N5CCCC5)C4)cc3)C2)nc(-c2ccncc2F)cc1=O`, the inhibition result is “Active”. Turning to `Cn1c(N2CCO[C@@H](c3cccc(NC(=O)C4CC4)c3)C2)nc(-c2ccncc2F)cc1=O`, the inhibition result was “Active”. With `Cn1c(N2CCO[C@@H](c3ccc(Nc4ccncc4)cc3)C2)nc(-c2ccncc2F)cc1=O`, the inhibition entry was “Active”.

As for `CN(c1ccc([C@H]2CN(c3nc(-c4ccncc4F)cc(=O)n3C)CCO2)cc1)C1CCOCC1`, the inhibition entry was “Active”. With `Cc1nnc(-c2ccc([C@H]3CN(c4nc(-c5ccncc5F)cc(=O)n4C)CCO3)cc2)o1`, the inhibition entry was “Active”. The result for `Cn1c(N2CCN[C@@H](c3ccc(N4CCC(O)CC4)cc3)C2)nc(-c2ccncc2F)cc1=O` reads “Active”.

In the case of `CCN(CC)CCOc1ccc([C@H]2CN(c3nc(-c4ccncc4F)cc(=O)n3C)CCO2)cc1`, the inhibition result is “Active”.

`Cn1c(N2CCO[C@@H](c3ccc(NC(=O)N4CCOCC4)cc3)C2)nc(-c2ccncc2F)cc1=O`: the inhibition entry was “Active”. Regarding `CC(C)c1ccc(-c2ccc([C@H]3CN(c4nc(-c5ccncc5F)cc(=O)n4C)CCN3)cc2)cc1`, the inhibition entry was “Active”. Then `CC(C)c1ccc([C@H]2CN(c3nc(-c4ccncc4F)cc(=O)n3C)CCO2)cc1`, with “Active”; and `COc1ccc(C2(O)CCN(C)CC2)cc1[C@H]1CN(c2nc(-c3ccncc3F)cc(=O)n2C)CCO1`, with “Active”; and `Cn1c(N2CCO[C@@H](c3ccc(N4CCCCC4)cc3)C2)nc(-c2ccncc2F)cc1=O`, with “Active”.

As to `CN(C)c1ccc([C@H]2CN(c3nc(-c4ccncc4F)cc(=O)n3C)CCN2)cc1`, the inhibition result was “Active”. With `Cn1c(N2CCO[C@@H](c3ccc([N+](=O)[O-])cc3)C2)nc(-c2ccncc2F)cc1=O`, the inhibition result is “Active”. Consider `CCOC(=O)Nc1ccc([C@H]2CN(c3nc(-c4ccncc4F)cc(=O)n3C)CCO2)cc1`, for which the inhibition entry was “Active”. As for `CCc1nc(-c2ccc([C@H]3CN(c4nc(-c5ccncc5F)cc(=O)n4C)CCN3)cc2)no1`, the inhibition entry was “Active”. `Cn1c(N2CCO[C@@H](c3ccc(N4CCN(CCO)C4=O)cc3)C2)nc(-c2ccncc2F)cc1=O`: the inhibition result is “Active”. Regarding `Cn1c(N2CCO[C@@H](c3ccc(OC(F)(F)F)cc3)C2)nc(-c2ccncc2F)cc1=O`, the inhibition result is “Active”.

In the case of `CN(c1ccc([C@H]2CN(c3nc(-c4ccncc4F)cc(=O)n3C)CCO2)cc1)C1CCCCC1`, the inhibition result was “Active”. Regarding `Cn1c(N2CCO[C@@H](c3ccc(NC4C5CC6CC(C5)CC4C6)cc3)C2)nc(-c2ccncc2F)cc1=O` (some centres undefined), the inhibition result is “Active”.

As for `CCOc1ccc(-c2ccc([C@H]3CN(c4nc(-c5ccncc5F)cc(=O)n4C)CCN3)cc2)cc1`, the inhibition entry is “Active”. For `Cn1c(N2CCO[C@@H](c3ccc(N4CC[C@H](N5CCCCC5)C4)cc3)C2)nc(-c2ccncc2F)cc1=O`, the inhibition entry was “Active”.

In the case of `Cn1c(N2CCO[C@@H](c3ccccc3)C2)nc(-c2ccncc2F)cc1=O`, the inhibition entry is “Active”.

Consider `Cn1c(N2CCO[C@@H](c3ccc(Nc4ccccn4)cc3)C2)nc(-c2ccncc2F)cc1=O`, for which the inhibition result is “Active”. Then `CC(C)N1CCN(c2ccc([C@H]3CN(c4nc(-c5ccncc5F)cc(=O)n4C)CCN3)cc2)CC1`, with “Active”; and `Cn1c(N2CCO[C@@H](c3ccc(C(C)(C)O)cc3)C2)nc(-c2ccncc2F)cc1=O`, with “Active”.

On to `COc1ccc([C@H]2CN(c3nc(-c4ccncc4F)c(Br)c(=O)n3C)CCO2)cc1`, for which the inhibition entry was “Active”.

Take `Cn1c(N2CCN[C@@H](c3ccc(N4CCOCC4)cc3)C2)nc(-c2ccncc2F)cc1=O`: the inhibition entry is “Active”. As to `Cn1c(N2CCO[C@@H](c3ccc(N(c4ccccn4)c4ccccn4)cc3)C2)nc(-c2ccncc2F)cc1=O`, the inhibition entry was “Active”.

As for `CC(=O)N(C)[C@@H]1CCN(c2ccc([C@H]3CN(c4nc(-c5ccncc5F)cc(=O)n4C)CCO3)cc2)C1`, the inhibition result was “Active”. Regarding `Cn1c(N2CCN[C@H](c3ccc(C#N)cc3)C2)nc(-c2ccncc2F)cc1=O`, the inhibition entry was “Active”. For `Cn1c(N2CCOC(c3ccc4c(c3)CC(=O)N4)C2)nc(-c2ccncc2F)cc1=O` (racemic), the inhibition result is “Active”.

As for `Cn1c(N2CCN[C@@H](c3ccc(-c4ccc(N)cc4)cc3)C2)nc(-c2ccncc2F)cc1=O`, the inhibition entry was “Active”. The result for `Cn1c(N2CCN[C@@H](c3ccc(-c4ccc(OCC5CC5)cc4)cc3)C2)nc(-c2ccncc2F)cc1=O` reads “Active”; that for `Cn1c(N2CCO[C@@H](c3ccc(NC4CCCCC4)cc3)C2)nc(-c2ccncc2F)cc1=O`, “Active”; that for `Cn1c(N2CCO[C@@H](c3ccc(N4CCN(c5ccccc5)CC4)cc3)C2)nc(-c2ccncc2F)cc1=O`, “Active”. `Cn1c(N2CCO[C@@H](c3ccc(N(C(=O)c4ccccc4)C4CCCCC4)cc3)C2)nc(-c2ccncc2F)cc1=O`: the inhibition entry was “Active”. `CN(c1ccc([C@H]2CN(c3nc(-c4ccncc4F)cc(=O)n3C)CCN2)cc1)C1CCCCC1`: the inhibition result was “Active”. Regarding `CNC(=S)Nc1ccc([C@H]2CN(c3nc(-c4ccncc4F)cc(=O)n3C)CCO2)cc1`, the inhibition result is “Active”. On to `CN1CCN(CCCOc2ccc([C@H]3CN(c4nc(-c5ccncc5F)cc(=O)n4C)CCO3)cc2)CC1`, for which the inhibition result is “Active”. On to `Cn1c(N2CCO[C@@H](c3ccc(N4CC[C@@H](N5CCCCC5)C4)cc3)C2)nc(-c2ccncc2F)cc1=O`, for which the inhibition result was “Active”.

Turning to `Cn1c(N2CCOC(c3cccc(-c4nccs4)c3)C2)nc(-c2ccncc2F)cc1=O` (centres undefined), the inhibition result is “Active”. Then `CN(C)c1ccc([C@H]2CN(c3nc(-c4ccncc4F)cc(=O)n3C)CCO2)cc1`, with “Active”. Turning to `COc1cc(Cl)ccc1[C@H]1CN(c2nc(-c3ccncc3F)cc(=O)n2C)CCO1`, the inhibition entry was “Active”.

As for `Cn1c(N2CCO[C@@H](c3ccc(-c4ncon4)cc3)C2)nc(-c2ccncc2F)cc1=O`, the inhibition entry is “Active”. Then `Cn1c(N2CCO[C@@H](c3ccc(OC4CCCC4)cc3)C2)nc(-c2ccncc2F)cc1=O`, with “Active”; and `Cn1c(N2CCN[C@@H](c3ccc(N4CCC(O)C4)cc3)C2)nc(-c2ccncc2F)cc1=O` (some centres undefined), with “Active”. For the compound `COCCN(c1ccc([C@H]2CN(c3nc(-c4ccncc4F)cc(=O)n3C)CCO2)cc1)C1CCCCC1`, the inhibition result was “Active”. Then `Cn1c(N2CCO[C@@H](c3ccc(N4CCC4)cc3)C2)nc(-c2ccncc2F)cc1=O`, with “Active”; and `Cn1c(N2CCN[C@@H](c3ccc(N4CC[C@H](C(N)=O)C4)cc3)C2)nc(-c2ccncc2F)cc1=O`, with “Active”. Take `CN1CCN(c2ccc([C@H]3CN(c4nc(-c5ccncc5F)cc(=O)n4C)CCN3)cc2)CC1`: the inhibition result was “Active”.

As to `CN(C)[C@@H]1CCN(c2ccc([C@H]3CN(c4nc(-c5ccncc5F)cc(=O)n4C)CCO3)cc2)C1`, the inhibition result is “Active”. Consider `Cn1c(N2CCO[C@@H](c3ccc(N4CC[C@@H](N5CCOCC5)C4)cc3)C2)nc(-c2ccncc2F)cc1=O`, for which the inhibition entry was “Active”.

The values are drawn from ChEMBL document CHEMBL3727346, “6-(pyridinyl)-4-pyrimidone derivates as tau protein kinase 1 inhibitors” (2011).
